This note sets out measurements from PubChem BioAssay AID330 (DTP/NCI, 2004).

Several values for one entry are separate records, joined by “and”; a condition that tells them apart may be missing. Equal values may be shown once. Toxic doses and inconclusive results are not listed.

The experiment deals with P388 leukemia ip, CD2F1 mice, survival T/C. Nature of the experiment: NCI In Vivo Anticancer Drug Screen. Data for tumor model P388 Leukemia (intraperitoneal) in CD2F1 (CDF1) mice. Conditions: endpoint: median survival time, higher = longer survival. An outline of the steps: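 Mice carrying the transplanted tumor received test compound or vehicle. Survival was recorded in each group, and the value is the treated-group measurement divided by that of the vehicle-treated control group.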

[1] abbreviates: dose: 100.0 mg/kg/injection, schedule: Q01DX001 (ip), vehicle: saline with Tween-80.
Setting [2] is: dose: 200.0 mg/kg/injection, schedule: Q01DX001 (ip), vehicle: saline with Tween-80.
Where [3] appears, read: dose: 50.0 mg/kg/injection, schedule: Q01DX009 (ip), vehicle: Klucel (hydroxypropylcellulose) (HPC).
Where [4] appears, read: dose: 50.0 mg/kg/injection, schedule: Q01DX005 (ip), vehicle: saline.
[5] abbreviates: dose: 100.0 mg/kg/injection, schedule: Q01DX005 (ip), vehicle: saline.
[6] abbreviates: dose: 200.0 mg/kg/injection, schedule: Q01DX005 (ip), vehicle: saline.
The mark [7] stands for this setting: dose: 100.0 mg/kg/injection, schedule: Q01DX009 (ip), vehicle: Klucel (hydroxypropylcellulose) (HPC).
Setting [8] is: dose: 200.0 mg/kg/injection, schedule: Q01DX009 (ip), vehicle: Klucel (hydroxypropylcellulose) (HPC).

Consider `C=C(C)C1(n2[nH]c(=O)n(-c3ccccc3)c2=O)CCC(C)=CC1=O` (centres undefined), for which the T/C under setting [1] is 102 % of control; the T/C under setting [2] is 95 % of control; the T/C (dose: 400.0 mg/kg/injection, schedule: Q01DX001 (ip), vehicle: saline with Tween-80) is 87 % of control.

As for `Cc1ccc(S(=O)CF)cc1` (centres undefined), the T/C (dose: 100.0 mg/kg/injection, schedule: Q04DX003 (ip), vehicle: saline with Tween-80) was 107 % of control.

For the compound `COc1cc2cc[n+](C)c(Cc3ccccc3)c2cc1OC`, the T/C by setting is: (dose: 3.12 mg/kg/injection, schedule: Q01DX009 (ip), vehicle: Klucel (hydroxypropylcellulose) (HPC)) 111 % of control; (dose: 6.25 mg/kg/injection, schedule: Q01DX009 (ip), vehicle: Klucel (hydroxypropylcellulose) (HPC)) 111 % of control; (dose: 12.5 mg/kg/injection, schedule: Q01DX009 (ip), vehicle: Klucel (hydroxypropylcellulose) (HPC)) 114 % of control; (dose: 25.0 mg/kg/injection, schedule: Q01DX009 (ip), vehicle: Klucel (hydroxypropylcellulose) (HPC)) 121 % of control; under setting [3], 160 % of control.

With `CCCCCOCCCCC`, the T/C runs as follows: (dose: 25.0 mg/kg/injection, schedule: Q01DX005 (ip), vehicle: saline) 100 % of control; under setting [4], 99 % of control; under setting [5], 95 % of control; under setting [6], 96 % of control.

In the case of `COC(=O)[C@@]12OC[C@]34C([C@@H](O)C1O)[C@@]1(C)CC(=O)C(O)=C(C)C1C[C@H]3OC(=O)[C@H](OC(=O)c1ccc(Cl)cc1)[C@H]42` (some centres undefined), the T/C is 112 % of control (dose: 0.25 mg/kg/injection, schedule: Q01DX005 (ip), vehicle: DMSO); 116 % of control (dose: 0.5 mg/kg/injection, schedule: Q01DX005 (ip), vehicle: DMSO); 113 % of control and 115 % of control (dose: 1.0 mg/kg/injection, schedule: Q01DX005 (ip), vehicle: DMSO); 109 % of control and 118 % of control (dose: 2.0 mg/kg/injection, schedule: Q01DX005 (ip), vehicle: DMSO); 109 % of control (dose: 4.0 mg/kg/injection, schedule: Q01DX005 (ip), vehicle: DMSO); 110 % of control and 115 % of control (dose: 8.0 mg/kg/injection, schedule: Q01DX005 (ip), vehicle: DMSO). Besides, the T/C (dose: 16.0 mg/kg/injection, schedule: Q01DX005 (ip), vehicle: DMSO) was 112 % of control.

For the compound `CCN(CC)CCNc1ccc(C)c2sc3cccc(O)c3c(=O)c12`, the T/C under setting [7] was 181 % of control.

Consider `COc1cc(OC)cc(C2(C(=O)[C@@H]3OC(C)(C)OC3C)SCCCS2)c1` (some centres undefined), for which the T/C was 98 % of control (dose: 100.0 mg/kg/injection, schedule: Q01DX001 (ip), vehicle: Klucel (hydroxypropylcellulose) (HPC)); 94 % of control (dose: 200.0 mg/kg/injection, schedule: Q01DX001 (ip), vehicle: Klucel (hydroxypropylcellulose) (HPC)); 90 % of control (dose: 400.0 mg/kg/injection, schedule: Q01DX001 (ip), vehicle: Klucel (hydroxypropylcellulose) (HPC)).

With `CCOC(=O)Nc1cc2c(c(N)n1)N=C(c1ccccc1)CN2C`, the T/C reads like this: (dose: 12.5 mg/kg/injection, schedule: Q01DX001 (ip), vehicle: saline with Tween-80) 111 % of control; (dose: 25.0 mg/kg/injection, schedule: Q01DX001 (ip), vehicle: saline with Tween-80) 101 % of control; (dose: 50.0 mg/kg/injection, schedule: Q01DX001 (ip), vehicle: saline with Tween-80) 111 % of control and 97 % of control; under setting [1], 112 % of control; under setting [2], 106 % of control.

Take `O=C1CCSC(=S)N1c1ccc2c(c1)OCO2`: the T/C reads like this: (dose: 50.0 mg/kg/injection, schedule: Q01DX009 (ip), vehicle: suspension in saline) 105 % of control; (dose: 100.0 mg/kg/injection, schedule: Q01DX009 (ip), vehicle: suspension in saline) 90 % of control; (dose: 200.0 mg/kg/injection, schedule: Q01DX009 (ip), vehicle: suspension in saline) 98 % of control.

For the compound `CCC1(O)C(=O)OCc2c1cc(-c1ccc(Cl)cc1)nc2OC` (centres undefined), the T/C runs as follows: (dose: 12.5 mg/kg/injection, schedule: Q01DX009 (ip), vehicle: distilled water + Tween-80) 101 % of control; (dose: 25.0 mg/kg/injection, schedule: Q01DX009 (ip), vehicle: distilled water + Tween-80) 100 % of control; (dose: 50.0 mg/kg/injection, schedule: Q01DX009 (ip), vehicle: distilled water + Tween-80) 99 % of control; (dose: 100.0 mg/kg/injection, schedule: Q01DX009 (ip), vehicle: distilled water + Tween-80) 91 % of control; (dose: 200.0 mg/kg/injection, schedule: Q01DX009 (ip), vehicle: distilled water + Tween-80) 98 % of control.

With `O=C(O)c1ccccc1C(=O)c1ccccn1`, the T/C under setting [3] is 99 % of control, the T/C under setting [7] was 97 % of control and the T/C under setting [8] is 97 % of control.

As for `CCOC(=O)Nc1cc(Cl)c2ncn(C(=O)OCC)c2n1`, the T/C by setting is: under setting [3], 96 % of control; under setting [7], 90 % of control; under setting [8], 93 % of control.

In the case of `Nc1ccccc1N=C(CC(=O)c1ccccc1)C(F)(F)F`, the T/C by setting is: (dose: 100.0 mg/kg/injection, schedule: Q04DX002 (ip), vehicle: saline) 99 % of control; (dose: 200.0 mg/kg/injection, schedule: Q04DX002 (ip), vehicle: saline) 101 % of control; (dose: 400.0 mg/kg/injection, schedule: Q04DX002 (ip), vehicle: saline) 97 % of control.

As to `O=C(CN1CCNCC1)N1CCOCC1`, the T/C was 100 % of control under setting [4], 102 % of control under setting [5] and 97 % of control under setting [6].

For `CCCCC[CH2][Sn]([CH2]C)([CH2]C)[O]C(C)=O`, the T/C runs as follows: (dose: 0.5 mg/kg/injection, schedule: Q01DX009 (ip), vehicle: saline with Tween-80) 109 % of control; (dose: 1.0 mg/kg/injection, schedule: Q01DX009 (ip), vehicle: saline with Tween-80) 113 % of control; (dose: 2.0 mg/kg/injection, schedule: Q01DX009 (ip), vehicle: saline with Tween-80) 109 % of control.

Regarding `c1cc(-c2[nH]c3cc(C4=NCCN4)ccc3c2-c2cc3ccc(C4=NCCN4)cc3[nH]2)ccc1C1=NCCN1`, the T/C was 107 % of control (dose: 3.12 mg/kg/injection, schedule: Q01DX005 (ip), vehicle: Klucel (hydroxypropylcellulose) (HPC)); 96 % of control (dose: 6.25 mg/kg/injection, schedule: Q01DX005 (ip), vehicle: Klucel (hydroxypropylcellulose) (HPC)); 109 % of control (dose: 12.5 mg/kg/injection, schedule: Q01DX005 (ip), vehicle: Klucel (hydroxypropylcellulose) (HPC)).

As for `CNC(=S)N=Nc1c(O)[nH]c2ccccc12`, the T/C was 91 % of control (dose: 50.0 mg/kg/injection, schedule: Q01DX009 (ip), vehicle: saline); 99 % of control (dose: 100.0 mg/kg/injection, schedule: Q01DX009 (ip), vehicle: saline); 91 % of control (dose: 200.0 mg/kg/injection, schedule: Q01DX009 (ip), vehicle: saline).

Consider `CCC[C@@H]1[C@@H](CCC)N1C(=N)OCC`, for which the T/C is, setting by setting: (dose: 12.5 mg/kg/injection, schedule: Q01DX005 (ip), vehicle: suspension in saline) 99 % of control; (dose: 25.0 mg/kg/injection, schedule: Q01DX005 (ip), vehicle: suspension in saline) 106 % of control; under setting [4], 103 % of control; (dose: 50.0 mg/kg/injection, schedule: Q01DX005 (ip), vehicle: suspension in saline) 106 % of control.

With `O=C(Nc1ccc(C2=NCCN2)cc1)c1ccc(C(=O)Nc2ccc(C3=NCCN3)cc2)c(NC(=O)c2ccc(C(=O)Nc3cc(C(=O)Nc4ccc(C5=NCCN5)cc4)ccc3C(=O)Nc3ccc(C4=NCCN4)cc3)cc2)c1`, the T/C is, setting by setting: (dose: 25.0 mg/kg/injection, schedule: Q01DX010 (ip), vehicle: saline) 90 % of control; (dose: 50.0 mg/kg/injection, schedule: Q01DX010 (ip), vehicle: saline) 86 % of control; (dose: 100.0 mg/kg/injection, schedule: Q01DX010 (ip), vehicle: saline) 100 % of control; (dose: 200.0 mg/kg/injection, schedule: Q01DX010 (ip), vehicle: saline) 100 % of control.

As for `CCC1C(=O)COC1=O` (centres undefined), the T/C was 99 % of control (dose: 50.0 mg/kg/injection, schedule: Q01DX005 (ip), vehicle: Klucel (hydroxypropylcellulose) (HPC)); 99 % of control (dose: 100.0 mg/kg/injection, schedule: Q01DX005 (ip), vehicle: Klucel (hydroxypropylcellulose) (HPC)); 99 % of control (dose: 200.0 mg/kg/injection, schedule: Q01DX005 (ip), vehicle: Klucel (hydroxypropylcellulose) (HPC)).
